Results: patent US20250295583A1, “INHALED HEDGEHOG INHIBITORS” (WBX PHARMA, INC., priority 2024, published 2025)
Several values for one entry are separate records, joined by “and”; a condition that tells them apart may be missing. Identical values can stand only once.

What was measured:
[1] = format: physicochemical
Description: Four dry powder formulations were developed using spray drying with two being acceptable for human use. […] The selected bulking agents were mannitol or trehalose with dispersibility enhancer: L-leucine (˜0.55 wt % solubility limit in 50:50 EtOH: water). Two mannitol formulations and two trehalose formulations with different amounts of L-leucine 10% and 26% were made using a BLD-35 spray dryer. The tested dose was 10 mg of the formulation in a Berry RSO1 high resistance inhaler.

IPF = conditions: given orally alone as a monotherapy; cited from earlier work
IPF patients = conditions: 21 IPF patients, cited from earlier work; for patients who discontinued the drug: combination trial of vismodegib plus pirfenidone
[2] = cited from earlier work
[3] = Estimate of epithelial lining fluid (ELF) concentration after inhaled delivery, from pirfenidone data; set-up: species or system human; conditions: for predicted ELF concentration adjusted for 200 μg delivery: inhaled dry powder, 200 μg delivered; for predicted ELF molar concentration if 45 mg delivered: inhaled, extrapolated from pirfenidone data
Description: The physical delivery of any drug by the inhalation route may be estimated by data generated in the delivery of inhaled pirfenidone.
Again, since delivery is just a physical process, one can estimate ELF concentrations for 200 μg of taladegib delivered as noted above based on pirfenidone data.

[4] = Estimate of systemic exposure after inhaled dosing versus oral dose; set-up: species or system human
Description: This would be about 6 half-lives. Depending on the half-life in the epithelial lining fluid, one to six inhalations a day would provide adequate inhibition of hedgehog receptors. At the highest dose frequency (6 inhalations/day), the total delivered dose would approximate 3.6 mg.

[5] = system: subjects with mild to moderate IPF; conditions: cited from earlier work
[6] = cited from earlier work; remark: listed apart in the source
[7] = cited from earlier work; remark: listed apart in the source
[8] = Published pharmacokinetics of oral vismodegib; format: in vivo, human; conditions: once daily oral therapy
Text: Only unbound drug can freely cross the alveolar epithelial barrier.

[9] = Accumulation factor calculation at steady state; conditions: half-life 3 days, dosing interval 1 day, first-order kinetics
Text: This calculation assumes the API is being administered in a clinically effective formulation as disclosed herein, at regular intervals, and that the pharmacokinetics of the candidate compound follow first-order kinetics where the rate of drug elimination is proportional to its concentration. To calculate the multiple of the initial drug concentration at steady state (known as the “accumulation factor”), the formula:
Substitute into the formula: With τ=1 day: AF=1/(1−e^(−0.231*1))≈1/(1−e^(−0.231)).
Evaluate the exponential: e^(−0.231)≈0.794.

[10] = 150 mg daily oral dose, cited from earlier work

CC(C)C[C@H](N)C(=O)O [L-leucine]
solubility limit in 50:50 EtOH: water [1]: ~0.55 wt %

COC(=O)c1ccc2c(c1)NC(=O)/C2=C(\Nc1ccc(N(C)C(=O)CN2CCN(C)CC2)cc1)c1ccccc1 [nintedanib]
slowing of the progression of the disease (IPF): about 50%

Cc1ccc(=O)n(-c2ccccc2)c1 [pirfenidone]
patients who discontinued the drug (IPF patients): 33.3% | amount delivered to the lung ([2]; 100 mg dose in the nebulizer, 24 hour urine analysis): 45 mg | epithelial lining fluid concentration ([2]; aerosolized, normal volunteers, average): 135 µg/mL | slowing of the progression of the disease (IPF): about 50%

CN(C(=O)c1ccc(F)cc1C(F)(F)F)C1CCN(c2nnc(-c3ccnn3C)c3ccccc23)CC1 [taladegib, Taladegib]
ELF concentration versus that achieved by 200 mg oral dose of taladegib (unbound) ([3]; 200 μg inhaled delivered dose): ≈ 29 fold and > 29 fold | predicted ELF concentration adjusted for 200 μg delivery [3]: 1.16 µmol/L | predicted ELF molar concentration if 45 mg delivered [3]: 264 µmol/L | systemic exposure/absorption relative to the oral dose ([4]; six inhalations a day, total 3.6 mg): less than 10% | alopecia ([5]; oral taladegib group): 52% | dysgeusia ([5]; oral taladegib group): 57% | muscle spasms ([5]; oral taladegib group): 43% | lung fibrosis by high resolution CT scan ([5]; oral taladegib versus slight increase in placebo group): decreased lung fibrosis | improvement in FVC ([5]; oral taladegib, at 12 weeks, on average, placebo 1.3% loss (p=0.035)): 1.9% | plasma protein bound [6]: 95% | mean concentration at steady state ([7]; 200 mg daily oral dose): about 0.8 μmol/L | absorption ([7]; 200 mg oral dose): approximately 30%

CS(=O)(=O)c1ccc(C(=O)Nc2ccc(Cl)c(-c3ccccn3)c2)c(Cl)c1 [vismodegib, Vismodegib]
plasma concentration nadir, of the peak [8]: about 80% | predicted ELF concentration adjusted for 200 μg delivery [3]: 1.71 µmol/L | predicted ELF molar concentration if 45 mg delivered [3]: 388 µmol/L | accumulation factor, steady state concentration versus after the first dose [9]: about 4.85 times | total systemic exposure ([4]; six administrations a day of a 30 mg capsule (delivered dose 600 μg each)): 3.6 mg | amount dissolved in 50:50 EtOH: water (wt/wt) solution ([1]; 50:50 EtOH: water (wt/wt)): 4% | patients who discontinued the drug (IPF patients): 42.9% | lung function and shortness of breath (IPF patients; vismodegib 150 mg daily plus pirfenidone 801 mg three times daily, 24 weeks, on average): improved | patients reporting at least one treatment-emergent adverse event (IPF patients; vismodegib 150 mg daily plus pirfenidone, 24 weeks): all patients | mean unbound concentration ([10]; steady state): 109 ± 58 nM | peak plasma concentration at steady state [10]: 22.6 ± 10.8 µmol/L | plasma protein bound [6]: 98% | plasma protein binding, in words ([6]; to albumin and alpha-1 acid glycoprotein): highly protein-bound
